Reference: US20240400515A1, “NPM1-DEPENDING LEUKEMIA AGENTS” (UNIVERSIDAD COMPLUTENSE DE MADRID, priority 2021, published 2024)

Assays:
MOLM13 (NPM1 C−) = assay: Viability assay (WST-1) in MOLM13 cell line; format: cell-based; conditions: Homo sapiens, MOLM-13, viability percentage relative to vehicle, 24 h
Procedure: (§1) Two different acute myeloid leukemia cell lines, OCI-AML3 (NPM1 C+) and MOLM13 (NPM1 C−) were obtained from the DSMZ cell repository (Braunschweig, Germany). Cell lines were expanded and cryogenically frozen upon acquisition to establish stocks in liquid nitrogen until use. Cultured cells were maintained at 37° C. in a humidified incubator in an atmosphere of 5% CO2 and passaged every 2-3 days. RPMI media (Gibco/Life Technologies; Grand Island, NY) supplemented with 10% fetal bovine serum (FBS) (Hyclone) and 1% penicillin/streptomycin was used.
(§2) The sensitivity of the compounds on OCI-AML3 (NPM1 C+) and MOLM13 (NPM1 C−) cell viability was assessed as an in-vitro acute myeloid leukemia (AML) model. Briefly, cells were seeded at a density of 2×10^4 cells/100 μL/well in 96-well plates. Cell lines were treated for 24 h with the test compound diluted in DMSO at the concentration of 5 μM or vehicle (DMSO). Then, 10 μL of WST-1 solution ((2-(4-iodophenyl)-3-(4-nitrophenyl)-5-(2,4-disulfophenyl)-2H-tetrazolium monosodium salt, Merck) were added and the cells were incubated for 4 h at 37° C. The absorbance was measured at 450 nm using an Asys UVM 340 microplate reader (Biochrom Ltd., Cambridge, UK). The background absorbance of blank wells containing only medium was subtracted from each test well. The data were reported as viability percentage relative to vehicle, obtained from two or three independent experiments performed in triplicate (Table 1).

OCI-AML3 (NPM1 C+) = assay: Viability assay (WST-1) in OCI-AML3 cell line; format: cell-based; conditions: Homo sapiens, OCI-AML-3, viability percentage relative to vehicle, 24 h
Procedure: as §1, §2

| SMILES | viability at 5 µM (MOLM13 (NPM1 C−)) | viability at 5 µM (OCI-AML3 (NPM1 C+)) |
| --- | --- | --- |
| Cc1ccc([C@H]2Cc3[nH]c4ccccc4c3[C@@H](CCNC3CC3)[C@@H]2N)cc1 [Iaa, (2R,3R,4R)-4-[2-(Cyclopropylamino)ethyl]-2-(4-methylphenyl)-2,3,4,9-tetrahydro-1H-carbazol-3-amine] | 2 ± 2% | 1 ± 1% |
| Cc1ccc([C@H]2Cc3[nH]c4ccc(Cl)cc4c3[C@@H](CCNCC3CC(F)(F)C3)[C@@H]2N)cc1 [Iab, (2R,3R,4R)-6-Chloro-4-(2-{[(3,3-difluorocyclobutyl)methyl]amino}ethyl)-2-(4-methylphenyl)-2,3,4,9-tetrahydro-1H-carbazol-3-amine] | 14 ± 8% | 17 ± 4% |
| CN[C@@H]1[C@@H](c2ccc(C)cc2)Cc2[nH]c3ccc(Cl)cc3c2[C@H]1CCNCC1CC(F)(F)C1 [Iac, (2R,3R,4R)-6-Chloro-4-(2-{[(3,3-difluorocyclobutyl)methyl]amino}ethyl)-N-methyl-2-(4-methylphenyl)-2,3,4,9-tetrahydro-1H-carbazol-3-amine] | 5 ± 1% | 6% |
| COc1ccc2[nH]c3c(c2c1)[C@@H](CCNCC1CC1)[C@H](N)[C@@H](c1ccc(C)cc1)C3 [Iaf, (2R,3R,4R)-4-{2-[(Cyclopropylmethyl)amino]ethyl}-6-methoxy-2-(4-methylphenyl)-2,3,4,9-tetrahydro-1H-carbazol-3-amine] | 60 ± 2% | 39 ± 6% |
| Cc1ccc([C@H]2Cc3[nH]c4ccc(Cl)cc4c3[C@@H](CCNCC3CC3)[C@@H]2N)cc1 [Iag, (2R,3R,4R)-6-Chloro-4-{2-[(cyclopropylmethyl)amino]ethyl}-2-(4-methylphenyl)-2,3,4,9-tetrahydro-1H-carbazol-3-amine] | 10 ± 6% | 9 ± 5% |
| COc1ccc([C@H]2Cc3[nH]c4ccc(Cl)cc4c3[C@@H](CCNCC3CC3)[C@@H]2N)cc1 [Iah, (2R,3R,4R)-6-Chloro-4-{2-[(cyclopropylmethyl)amino]ethyl}-2-(4-methoxyphenyl)-2,3,4,9-tetrahydro-1H-carbazol-3-amine] | 16 ± 2% | 26 ± 12% |
| Cc1ccc([C@H]2Cc3[nH]c4ccc(C)cc4c3[C@@H](CCNCC3CC3)[C@@H]2N)cc1 [Iai, (2R,3R,4R)-4-{2-[(Cyclopropylmethyl)amino]ethyl}-6-methyl-2-(4-methylphenyl)-2,3,4,9-tetrahydro-1H-carbazol-3-amine] | 6 ± 2% | 12 ± 2% |
| Cc1ccc([C@H]2Cc3[nH]c4ccc(F)cc4c3[C@@H](CCNCC3CC3)[C@@H]2N)cc1 [Iaj, (2R,3R,4R)-4-{2-[(Cyclopropylmethyl)amino]ethyl}-6-fluoro-2-(4-methylphenyl)-2,3,4,9-tetrahydro-1H-carbazol-3-amine] | 4 ± 1% | 7 ± 1% |
| CN[C@@H]1[C@@H](c2ccc(C)cc2)Cc2[nH]c3ccc(Cl)cc3c2[C@H]1CCNCC1CC1 [Iak, (2R,3R,4R)-6-Chloro-4-{2-[(cyclopropylmethyl)amino]ethyl}-N-methyl-2-(4-methylphenyl)-2,3,4,9-tetrahydro-1H-carbazol-3-amine] | 7 ± 2% | 1 ± 1% |
| Cc1ccc([C@H]2Cc3c(c4ccccc4n3C)[C@@H](CCNCC3CC3)[C@@H]2N)cc1 [Ial, (2R,3R,4R)-4-{2-[(Cyclopropylmethyl)amino]ethyl}-9-methyl-2-(4-methylphenyl)-2,3,4,9-tetrahydro-1H-carbazol-3-amine] | 17% | 22 ± 2% |
| Cc1ccc([C@H]2Cc3[nH]c4ccccc4c3[C@@H](CCNCC3CC3)[C@@H]2N)cc1 [Ib, (2R,3R,4R)-4-{2-[(Cyclopropylmethyl)amino]ethyl}-2-(4-methylphenyl)-2,3,4,9-tetrahydro-1H-carbazol-3-amine] | 20 ± 5% | 16% |
| COc1ccc([C@@H]2Cc3[nH]c4ccccc4c3[C@H](CCNCC3CC3)[C@H]2N)cc1 [Id, (2S,3S,4S)-4-{2-[(Cyclopropylmethyl)amino]ethyl}-2-(4-methoxyphenyl)-2,3,4,9-tetrahydro-1H-carbazol-3-amine] | 40% | 33 ± 5% |
